Where two headings read alike, the source gives them in different places.

In one test the target is T1, GAL4-hERα (Homo sapiens, UniProt P03372).
T1 construct: GAL4hERα (or β) LBD chimeric receptors; expressed in transfected cells; host or cells: CHO-K1 (CCRC 60006), transient co-transfection with Fugene 6
T1 sequence (P03372 311-547 limits assumed): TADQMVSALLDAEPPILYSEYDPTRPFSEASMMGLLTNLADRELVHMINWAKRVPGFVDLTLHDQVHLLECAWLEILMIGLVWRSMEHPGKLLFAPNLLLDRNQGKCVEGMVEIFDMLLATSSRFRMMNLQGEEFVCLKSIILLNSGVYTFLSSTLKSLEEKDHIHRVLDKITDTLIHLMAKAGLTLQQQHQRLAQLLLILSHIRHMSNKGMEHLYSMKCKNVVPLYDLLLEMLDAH
Kind of test: Transactivation assay for estrogen activity, GAL4-hERα LBD chimeric receptor with (UAS)4-alkaline phosphatase reporter in CHO-K1 cells. In kind it is cell-based. The following applies: for EC50: CHO-K1 cells, ALP reporter, read-out: EC50 value for ERα (converted); for maximal activation of ERα: at the concentration of maximal activation (compound 2: 40 μg/mL; compound 6: 20 μg/mL); for ALP activity with increasing concentration, GAL4-hERα / concentration at which the maximal activation of ERα is achieved: dose response curve.

The target in another test is T2, GAL4-hERβ (Homo sapiens, UniProt Q92731).
T2 construct: GAL4hERα (or β) LBD chimeric receptors; expressed in transfected cells; host or cells: CHO-K1 (CCRC 60006), transient co-transfection with Fugene 6
T2 sequence (Q92731 264-498 limits assumed): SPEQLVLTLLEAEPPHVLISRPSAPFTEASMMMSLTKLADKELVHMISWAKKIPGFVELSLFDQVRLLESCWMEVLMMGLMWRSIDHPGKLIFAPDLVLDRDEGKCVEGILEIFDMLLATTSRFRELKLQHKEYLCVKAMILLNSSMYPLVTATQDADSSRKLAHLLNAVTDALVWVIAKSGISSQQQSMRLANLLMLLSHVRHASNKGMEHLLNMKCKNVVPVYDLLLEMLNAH
The test can be described thus: Transactivation assay for estrogen activity, GAL4-hERβ LBD chimeric receptor with (UAS)4-alkaline phosphatase reporter in CHO-K1 cells. The conditions noted are these: for EC50: CHO-K1 cells, ALP reporter, read-out: EC50 value for ERβ (converted); for maximal activation of ERβ: at the concentration of maximal activation (compound 2: 40 μg/mL; compound 6: 20 μg/mL); for ALP activity with increasing concentration, GAL4-hERβ / concentration at which the maximal activation of ERβ is achieved: dose response curve. It is filed as cell-based.

Where [1] appears, read: three concentrations, fraction with compound 5.

Description for GAL4-hERα: (§1) To evaluate the estrogen activity, the pBKCMV plasmid containing the gene of GAL4hERα (or β) LBD chimeric receptors was co-transfected with a plasmid containing the (UAS)4-alkaline phosphatase reporter gene into CHO-K1 cells. When a test sample was reacted with ER, the GAL4 was mediated to bind specifically with the UAS upstream of the reporter gene so as to activate the expression of the reporter gene, i.e. the alkaline phosphatase (ALP) enzyme. By measuring the alkaline phosphatase activity, we can detect the estrogen activity of the sample.
(§2) Cells were grown to confluence and seeded into 96-well microplates for a day. Before transfection, the two plasmids DNA in equal proportions were added to a mixture of the Fugene 6 transfection reagent and Ham's F12 medium, and then incubated for 20 min. At transfection, the fugene 6-DNA mixture was then added to the cells after the original FBS containing medium was removed.
(§3) After a 2-day culture, an aliquot of the medium was taken for the analysis of alkaline phosphatase activity.
Description for GAL4-hERβ: as §1, §2, §3

With `Cc1c(C)c2c(c(C)c1O)CC[C@@](C)(CCC[C@H](C)CCC[C@H](C)CCCC(C)C)O2` [compound 1, RRR-α-tocopherol], the EC50 (as a rule, the concentration needed to bring the measured effect to its halfway point) was 2.51 µM on GAL4-hERα, 2.5 µM on GAL4-hERα (value in parentheses), 9.19 µM at GAL4-hERβ and 9.2 µM at GAL4-hERβ (value in parentheses).

With `COc1c(O)c(C)c2c(c1OC)O[C@](C)(CC/C=C(\C)CC/C=C(\C)CC/C=C(\C)CC/C=C(\C)CC/C=C(\C)CC/C=C(\C)CC/C=C(\C)CCC=C(C)C)C=C2` [compound 2, hydro-Q9 chromene], at GAL4-hERα, the EC50 is 10.7 µM; the “maximal activation of ERα” value turned out to be 3.68 fold; the “ALP activity with increasing concentration, GAL4-hERα” value is reported as “dose-dependent increase”; the “concentration at which the maximal activation of ERα is achieved” value (“concentration … of ERα is achieved” below) was 40 µg/mL. At GAL4-hERα (value in parentheses), the EC50 was 10.8 µM and the “concentration … of ERα is achieved” value stood at 50.34 µM. Further, at GAL4-hERβ, the EC50 is 7.36 µM; the “maximal activation of ERβ” value is 3.79 fold; the “ALP activity with increasing concentration, GAL4-hERβ” value was “dose-dependent increase”; the “concentration at which the maximal activation of ERβ is achieved” value (“concentration … of ERβ is achieved” for short) is 40 µg/mL. Besides, at GAL4-hERβ (value in parentheses), the concentration for a half-maximal effect (EC50) was 7.4 µM and the “concentration … of ERβ is achieved” value was determined as 50.34 µM.

As to `COC1=C(OC)C(=O)C(C/C=C(\C)CC/C=C(\C)CC/C=C(\C)CC/C=C(\C)CC/C=C(\C)CC/C=C(\C)CC/C=C(\C)CC/C=C(\C)CCC=C(C)C)=C(C)C1=O` [compound 3, coenzyme Q9], at GAL4-hERα, the EC50 was 51 µM; the “ALP activity with increasing concentration, GAL4-hERα” value is given as “dose-dependent increase”; the “concentration … of ERα is achieved” value was found to be 20 µg/mL. For the same compound, on GAL4-hERα (value in parentheses), the EC50 was 13.3 µM and the “concentration … of ERα is achieved” value was 25.2 µM. Besides, at GAL4-hERβ, the EC50 is 1.06 µM; the “ALP activity with increasing concentration, GAL4-hERβ” value is listed as “dose-dependent increase”; the “concentration … of ERβ is achieved” value was determined as 20 µg/mL. Further, on GAL4-hERβ (value in parentheses), the EC50 is 1.06 µM and the “concentration … of ERβ is achieved” value was 25.2 µM.

`COc1cc(/C=C/C(=O)OCC(O)CO)ccc1O` (stereo not shown) [compound 5, 1-feruloyl glycerol]: the “ALP activity, activation of GAL4-hERα” value on GAL4-hERα (setting [1]) is on record as “significant increases in the ALP activity”. Further, the “ALP activity, activation of GAL4-hERβ” value at GAL4-hERβ (setting [1]) is “significant increases in the ALP activity”.

As to `CC(C)=CCC/C(C)=C/CC/C(C)=C/CC/C(C)=C/CC/C(C)=C/CC/C(C)=C/CC/C(C)=C/CC/C(C)=C/CC[C@]1(C)CCc2cc(O)c(C)c(C)c2O1` [compound 6, γ-tocopherol-9], at GAL4-hERα, the EC50 is 12.7 µM; the “maximal activation of ERα” value is given as 2.91 fold; the “ALP activity with increasing concentration, GAL4-hERα” value is listed as “dose-dependent increase”; the “concentration … of ERα is achieved” value amounted to 20 µg/mL. For the same compound, on GAL4-hERα (value in parentheses), the EC50 is 12.7 µM and the “concentration … of ERα is achieved” value came to 26.64 µM. At GAL4-hERβ, the EC50 is 3.19 µM; the “maximal activation of ERβ” value is 3.26 fold; the “ALP activity with increasing concentration, GAL4-hERβ” value is “dose-dependent increase”; the “concentration … of ERβ is achieved” value turned out to be 20 µg/mL. At GAL4-hERβ (value in parentheses), the EC50 was 3.2 µM and the “concentration … of ERβ is achieved” value was 26.64 µM.

For the origin of these results see patent US7999004B2, “Compounds having estrogenic activity” (National Taiwan University, priority 2007, dated 2011).
